# Experimental data as given in patent publication US11040028B2, “Penicinotam derivative, preparation method and use thereof” (OCEAN UNIVERSITY OF CHINA, priority 2017, dated 2021).
# How the values were obtained:
# Assay type in all cases: cell-based
# [1] = tested on: human dermal fibroblasts CCC-ESF-1; assay: Anti-fibrosis activity test: inhibition of proliferation of human dermal fibroblasts CCC-ESF-1 (CCK-8); conditions: Fibroblast
# Method in brief: (§1)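 After one day of adherence at 37° C in 5% CO2, cells (seeded at 2×10^4 cells/mL) received the compounds for two days in triplicate. Inhibition of proliferation was quantified with CCK-8 at 450 nm, with IC50 calculated from IR = (1−Ai/Ao)×100%.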
# [2] = tested on: cardiac fibroblast RAT-iCell-C002; assay: Anti-fibrosis activity test: inhibition of proliferation of cardiac fibroblast RAT-iCell-C002 (CCK-8); conditions: Cardiac fibroblast, 48 h
# Method in brief: as §1
# [3] = tested on: human hepatic stellate cells LX-2; assay: Anti-fibrosis activity test: inhibition of proliferation of human hepatic stellate cells LX-2 (CCK-8); conditions: Homo sapiens, 48 h
# Method in brief: as §1
# [4] = tested on: human fibrosarcoma cells HT-1080; assay: Anti-fibrosis activity test: inhibition of proliferation of human fibrosarcoma cells HT-1080 (CCK-8); conditions: Homo sapiens, HT-1080, 48 h
# Method in brief: as §1
# [5] = tested on: NF-κB; assay: Immunological activity test: inhibition of NF-κB activity; conditions: initial concentration of 30 μM; a/b isomers given as first/second symbol; read-out: IC50 (μM), inhibitory activity against NF-κB
# Method in brief: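 IC50 values were derived after initial screening of compounds at 30 μM for NF-κB inhibitory activity, with parthenolide serving as the positive control.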
# [6] = tested on: BHK-21 cells; assay: Anti-fibrosis activity test: inhibition of BHK-21 cell proliferation (CCK-8); conditions: Mesocricetus auratus, BHK-21, 48 h
# Method in brief: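 BHK-21 cells seeded at 2×10^4 cells/mL, allowed to adhere 24 h at 37° C, 5% CO2, then exposed to compounds at graded concentrations in triplicate for 48 h. CCK-8 added for 2 h and absorbance read at 450 nm; inhibition rate taken as (1−Ai/Ao)×100% and IC50 fitted.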
# [7] = tested on: mouse macrophages (RAW264.7); assay: Lipopolysaccharide-induced NO secretion in macrophages (Griess); conditions: Mus musculus, RAW264.7, 24 h, RAW264.7, LPS 1 μg/ml, a/b isomers given as first/second symbol, read-out: IC50 (μM), inhibition of lipopolysaccharide-induced NO secretion in macrophages
# Method in brief: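 LPS 1 μg/ml, 24 h, RAW264.7 (DMEM/10% FBS); cpds at varied concs. Supernatant NO by Griess, A548; % inhibition vs blank medium.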
# [8] = tested on: human lung fibroblasts HFL1; assay: Anti-fibrosis activity test: inhibition of proliferation of human lung fibroblasts HFL1 (CCK-8); conditions: Homo sapiens, HFL1, 48 h
# Method in brief: as §1
# [9] = tested on: human embryonic lung fibroblast IMR-90; assay: Anti-fibrosis activity test: inhibition of proliferation of human embryonic lung fibroblast IMR-90 (CCK-8)
# Method in brief: as §1
# [10] = human dermal fibroblasts CCC-ESF-1, CCK-8, 48 hours
# [11] = cardiac fibroblast RAT-iCell-C002, CCK-8, 48 hours
# [12] = human hepatic stellate cells LX-2, CCK-8, 48 hours
# [13] = human fibrosarcoma cells HT-1080, CCK-8, 48 hours
# [14] = CCK-8, 48 hours after administration
# [15] = human lung fibroblasts HFL1, CCK-8, 48 hours
# [16] = human embryonic lung fibroblast IMR-90, CCK-8, 48 hours
# [17] = Homo sapiens, CCC-ESF-1 cells, 48 h, CCK-8
# [18] = Homo sapiens, IMR-90 cells, 48 h, CCK-8
"IC50 [4, 13]",IC50 [5],IC50 [7],"IC50 ([4]; HT-1080 cells, 48 h, CCK-8)",SMILES,"IC50 [1, 10]","IC50 [2, 11]","IC50 [3, 12]","IC50 [6, 14]","IC50 [8, 15]","IC50 [9, 16]","IC50 [1, 17]","IC50 ([2]; RAT-iCell-C002 cells, CCK-8)","IC50 ([3]; LX-2, 48 h, LX-2 cells, CCK-8)","IC50 ([6]; 48 h, CCK-8)","IC50 ([8]; HFL1 cells, 48 h, CCK-8)","IC50 [9, 18]"
0.05 to 5 mM,1 to 10 µM,1 to 10 µM,–,"O=C1c2c(nc3cccc(C(F)(F)F)c3c2O)-c2cccn21 [Compound 479b, 9-hydroxy-8-(trifluoromethyl)-10H-pyrrolizino[1,2-b]quinolin-10-one]",0.05 to 5 mM,0.05 to 5 mM,0.05 to 5 mM,0.05 to 5 mM,0.05 to 5 mM,0.05 to 5 mM,–,–,–,–,–,–
–,1 to 10 µM,1 to 10 µM,0.05 to 5 mM,"O=C1c2c(n(C3CC3)c3ccccc3c2=O)-c2cccn21 [Compound 673a, 4-Cyclopropyl-9H-pyrrolizino[1,2-b]quinoline-9,10(4H)-dione]",–,–,–,–,–,–,0.05 to 5 mM,0.05 to 5 mM,0.05 to 5 mM,< 0.05 mM,0.05 to 5 mM,0.05 to 5 mM
0.05 to 5 mM,1 to 10 µM,1 to 10 µM,–,"O=C1c2c(nc3ccccc3c2OCc2ccccc2Cl)-c2cccn21 [Compound 600b, 9-((2-chlorobenzyl)oxy)-10H-pyrrolizino[1,2-b]quinolin-10-one]",0.05 to 5 mM,0.05 to 5 mM,0.05 to 5 mM,0.05 to 5 mM,0.05 to 5 mM,0.05 to 5 mM,–,–,–,–,–,–
0.05 to 5 mM,1 to 10 µM,1 to 10 µM,–,"O=C1c2c(nc3ccccc3c2OCc2ccc(Br)cc2F)-c2cccn21 [Compound 606b, 9-((4-bromo-2-fluorobenzyl)oxy)-10H-pyrrolizino[1,2-b]quinolin-10-one]",0.05 to 5 mM,0.05 to 5 mM,0.05 to 5 mM,0.05 to 5 mM,0.05 to 5 mM,0.05 to 5 mM,–,–,–,–,–,–
0.05 to 5 mM,1 to 10 µM,1 to 10 µM,–,"O=C1c2c([nH]c3cccc(Cl)c3c2=O)-c2cccn21 [Compound 464a, 8-Chloro-9H-pyrrolizino[1,2-b]quinoline-9,10(4H)-dione]",0.05 to 5 mM,0.05 to 5 mM,0.05 to 5 mM,< 0.05 mM,< 0.05 mM,0.05 to 5 mM,–,–,–,–,–,–
0.05 to 5 mM,1 to 10 µM,1 to 10 µM,–,"O=C1c2c(n(Cc3ccc(Cl)cc3F)c3ccccc3c2=O)-c2cccn21 [Compound 602a, 4-(4-Chloro-2-fluorobenzyl)-9H-pyrrolizino[1,2-b]quinoline-9,10(4H)-dione]",0.05 to 5 mM,0.05 to 5 mM,0.05 to 5 mM,0.05 to 5 mM,0.05 to 5 mM,0.05 to 5 mM,–,–,–,–,–,–

# Second part, the molecule before the results:
SMILES,"IC50 [4, 13]",IC50 [5],IC50 [7],"IC50 ([4]; HT-1080 cells, 48 h, CCK-8)","IC50 [1, 10]","IC50 [2, 11]","IC50 [3, 12]","IC50 [6, 14]","IC50 [8, 15]","IC50 [9, 16]","IC50 [1, 17]","IC50 ([2]; RAT-iCell-C002 cells, CCK-8)","IC50 ([3]; LX-2, 48 h, LX-2 cells, CCK-8)","IC50 ([6]; 48 h, CCK-8)","IC50 ([8]; HFL1 cells, 48 h, CCK-8)","IC50 [9, 18]"
"O=C1c2c(n(CC(F)(F)F)c3ccccc3c2=O)-c2cccn21 [Compound 657a, 4-(2,2,2-Trifluoroethyl)-9H-pyrrolizino[1,2-b]quinoline-9,10(4H)-dione]",0.05 to 5 mM,0.1 to 1 µM,1 to 10 µM,–,0.05 to 5 mM,0.05 to 5 mM,0.05 to 5 mM,0.05 to 5 mM,0.05 to 5 mM,0.05 to 5 mM,–,–,–,–,–,–
"CC(C)(C)c1ccc(COc2c3c(nc4ccccc24)-c2cccn2C3=O)cc1 [Compound 605b, 9-((4-(tert-butyl)benzyl)oxy)-10H-pyrrolizino[1,2-b]quinolin-10-one]",0.05 to 5 mM,1 to 10 µM,1 to 10 µM,–,0.05 to 5 mM,0.05 to 5 mM,0.05 to 5 mM,0.05 to 5 mM,0.05 to 5 mM,0.05 to 5 mM,–,–,–,–,–,–
"O=C1c2c(n(Cc3c(F)cccc3F)c3ccccc3c2=O)-c2cccn21 [Compound 615a, 4-(2,6-Difluorobenzyl)-9H-pyrrolizino[1,2-b]quinoline-9,10(4H)-dione]",0.05 to 5 mM,0.1 to 1 µM,10 to 50 µM,–,0.05 to 5 mM,0.05 to 5 mM,0.05 to 5 mM,0.05 to 5 mM,0.05 to 5 mM,0.05 to 5 mM,–,–,–,–,–,–
"Cc1cc(C)c2[nH]c3c(c(=O)c2c1)C(=O)n1cccc1-3 [Compound 750a, 5,7-Dimethyl-9H-pyrrolizino[1,2-b]quinoline-9,10(4H)-dione]",–,1 to 10 µM,1 to 10 µM,0.05 to 5 mM,–,–,–,–,–,–,0.05 to 5 mM,0.05 to 5 mM,0.05 to 5 mM,0.05 to 5 mM,0.05 to 5 mM,0.05 to 5 mM
"O=C1c2c(nc3ccccc3c2OCCCCN2CCCCC2)-c2cccn21 [Compound 667b, 9-(4-(piperidin-1-yl)butoxy)-10H-pyrrolizino[1,2-b]quinolin-10-one]",–,1 to 10 µM,1 to 10 µM,0.05 to 5 mM,–,–,–,–,–,–,0.05 to 5 mM,0.05 to 5 mM,0.05 to 5 mM,0.05 to 5 mM,0.05 to 5 mM,0.05 to 5 mM
"O=C1c2c(n(Cc3ccc(OC(F)(F)F)cc3)c3ccccc3c2=O)-c2cccn21 [Compound 592a, 4-(4-(Trifluoromethoxy)benzyl)-9H-pyrrolizino[1,2-b]quinoline-9,10(4H)-dione]",0.05 to 5 mM,1 to 10 µM,1 to 10 µM,–,0.05 to 5 mM,0.05 to 5 mM,0.05 to 5 mM,0.05 to 5 mM,0.05 to 5 mM,0.05 to 5 mM,–,–,–,–,–,–
"O=C1c2c(n(Cc3cccc(F)c3)c3c(F)cccc3c2=O)-c2cccn21 [Compound 458a, 5-Fluoro-4-(3-fluorobenzyl)-9H-pyrrolizino[1,2-b]quinoline-9,10(4H)-dione]",0.05 to 5 mM,0.1 to 1 µM,1 to 10 µM,–,0.05 to 5 mM,0.05 to 5 mM,0.05 to 5 mM,< 0.05 mM,0.05 to 5 mM,0.05 to 5 mM,–,–,–,–,–,–
"O=C1c2c(nc3cc(C(F)(F)F)ccc3c2O)-c2cccn21 [Compound 536b, 9-hydroxy-6-(trifluoromethyl)-10H-pyrrolizino[1,2-b]quinolin-10-one]",0.05 to 5 mM,1 to 10 µM,1 to 10 µM,–,0.05 to 5 mM,0.05 to 5 mM,0.05 to 5 mM,0.05 to 5 mM,0.05 to 5 mM,0.05 to 5 mM,–,–,–,–,–,–
"CCOC(=O)/C=C/COc1c2c(nc3ccccc13)-c1cccn1C2=O [Compound 661b, ethyl (E)-4-((10-oxo-10H-pyrrolizino[1,2-b]quinolin-9-yl)oxy)but-2-enoate]",0.05 to 5 mM,1 to 10 µM,1 to 10 µM,–,0.05 to 5 mM,0.05 to 5 mM,0.05 to 5 mM,0.05 to 5 mM,0.05 to 5 mM,0.05 to 5 mM,–,–,–,–,–,–
"COc1cc(Cn2c3c(c(=O)c4ccccc42)C(=O)n2cccc2-3)cc(OC)c1 [Compound 580a, 4-(3,5-Dimethoxybenzyl)-9H-pyrrolizino[1,2-b]quinoline-9,10(4H)-dione]",0.05 to 5 mM,1 to 10 µM,0.1 to 1 µM,–,0.05 to 5 mM,0.05 to 5 mM,0.05 to 5 mM,0.05 to 5 mM,0.05 to 5 mM,0.05 to 5 mM,–,–,–,–,–,–
"O=C1c2c(nc3ccccc3c2OCCCCN2CCNCC2)-c2cccn21 [Compound 670b, 9-(4-(piperazin-1-yl)butoxy)-10H-pyrrolizino[1,2-b]quinolin-10-one]",–,1 to 10 µM,1 to 10 µM,0.05 to 5 mM,–,–,–,–,–,–,0.05 to 5 mM,0.05 to 5 mM,0.05 to 5 mM,0.05 to 5 mM,0.05 to 5 mM,0.05 to 5 mM
"Cc1ccc2n1C(=O)c1nc3ccccc3c(O)c1-2 [Compound 799b, 11-hydroxy-3-methyl-5H-pyrrolizino[2,1-b]quinolin-5-one]",–,1 to 10 µM,1 to 10 µM,0.05 to 5 mM,–,–,–,–,–,–,0.05 to 5 mM,0.05 to 5 mM,0.05 to 5 mM,0.05 to 5 mM,0.05 to 5 mM,0.05 to 5 mM
"Cc1cccc2[nH]c3c(c(=O)c12)C(=O)n1cccc1-3 [Compound 678a, 8-Methyl-9H-pyrrolizino[1,2-b]quinoline-9,10(4H)-dione]",–,1 to 10 µM,1 to 10 µM,0.05 to 5 mM,–,–,–,–,–,–,0.05 to 5 mM,0.05 to 5 mM,0.05 to 5 mM,0.05 to 5 mM,0.05 to 5 mM,0.05 to 5 mM
